Converted amounts (≈) assume the structure as drawn. Read-outs that look alike come from different tables or passages of the source.
Columns and labels:
Type in all cases: cell-based
[1] = system: E. coli ATCC 25922 (NB27001); assay: MIC by broth microdilution, E. coli NB27001; conditions: Escherichia coli, ATCC25922, CAMHB, 35° C., 20 hours, read-out: Antibacterial activity (MIC) NB27001
Experimental: (§1) Bacterial isolates were cultivated from −80° C. frozen stocks by overnight passages at 35° C. in ambient air on Mueller-Hinton agar plates (MHA, Becton Dickinson, Franklin Lakes, NB) with the exception of S. pneumoniae which was grown overnight at 35° C. in the presence of 5% CO2 on blood agar plates (tryptic soy agar with 5% sheep blood (Thermo Scientific, Waltham, Mass.) . The following quality control and wild type strains were obtained from the American Type Culture Collection (ATCC; Rockville, Md.) and are coded in the Novartis strain collection as indicated: E. coli ATCC 25922 (NB27001), E. faecalis ATCC 29212 (NB04001), S. aureus ATCC 49951 (NB01006) and S. pneumoniae ATCC […] (NB07001). […] P. aeruginosa NB52019, obtained from Queen's University (Kingston, Ontario, Canada), is the wild-type PAO1 strain.
(§2) Minimal Inhibitory Concentrations (MIC) were determined by the broth microdilution method in accordance with Clinical and Laboratories Institute (CLSI) guidelines. In brief, fresh bacterial overnight cultures were re-suspended in sterile saline, adjusted to a 0.5 McFarland turbidity standard and then diluted to yield a final inoculum of approximately 5×10^5 colony-forming units (CFU)/mL. All bacterial suspensions were prepared in cation adjusted Mueller-Hinton Broth (CAMHB; Becton Dickinson, Franklin Lakes, N.J.;) with the exception of S. pneumoniae which was prepared in CAMHB supplemented with 5% lysed horse blood (Hardy Diagnostics, Santa Maria, Calif.). Two-fold serial dilutions of compounds were prepared in 100% dimethyl sulfoxide (DMSO) at 100-fold the highest final assay concentration; the resulting dilution series of compounds were diluted 1:10 with sterile water. Ten μL of the drug dilution series in 10% DMSO was transferred to microtiter wells and 90 μL of bacterial suspension was inoculated into the wells. All inoculated microdilution trays were incubated in ambient air at 35° C. for 20 hours. Following incubation, assay plates were read in a microtiter plate reader at 600 nm and visually inspected to confirm the MIC endpoint well with the OD value. The lowest concentration of the compound that prevented visible growth was recorded as the MIC (in μg/mL).

[2] = system: S. aureus NB01006-AVR005, gyrA (S84L), grlA (580F) and grlB (E471K); assay: microbe, parasite or virus in culture; conditions: Staphylococcus aureus, 20 h, read-out: Antibacterial activity (MIC) NB01006-AVR005
Experimental: as §1, §2

[3] = system: S. pneumoniae ATCC 25922 (NB07001); assay: MIC by broth microdilution, S. pneumoniae NB07001; conditions: Streptococcus pneumoniae, read-out: Antibacterial activity (MIC) NB07001
Experimental: as §1, §2

[4] = system: S. aureus NB01080 fluoroquinolone-resistant clinical isolate; assay: MIC by broth microdilution, S. aureus NB01080; conditions: Staphylococcus aureus, CAMHB, 35° C., 20 hours, read-out: Antibacterial activity (MIC) NB01080
Experimental: as §1, §2

[5] = system: S. aureus ATCC 49951 (NB01006); assay: MIC by broth microdilution, S. aureus NB01006; conditions: Staphylococcus aureus, ATCC49951, CAMHB, 35° C., 20 hours, read-out: Antibacterial activity (MIC) NB01006
Experimental: as §1, §2

[6] = system: E. faecalis ATCC 29212 (NB04001); assay: MIC by broth microdilution, E. faecalis NB04001; conditions: Enterococcus faecalis, ATCC29212, CAMHB, 35° C., 20 hours, read-out: Antibacterial activity (MIC) NB04001
Experimental: as §1, §2

[7] = system: P. aeruginosa NB52019, wild-type PAO1 strain; assay: MIC by broth microdilution, P. aeruginosa NB52019; conditions: Pseudomonas aeruginosa, CAMHB, 35° C., 20 hours, read-out: Antibacterial activity (MIC) NB52019
Experimental: as §1, §2

| Structure (SMILES) | MIC [1] [µg/mL] | MIC [2] [µg/mL] | MIC ([3]; ATCC25922, 20 h) [µg/mL] | MIC [4] [µg/mL] | MIC [5] [µg/mL] | MIC [6] [µg/mL] | MIC [7] [µg/mL] | MIC ([3]; ATCC25922, S. pneumoniae, CAMHB supplemented with 5% lysed horse blood, 35° C., 20 hours) [µg/mL] |
| --- | --- | --- | --- | --- | --- | --- | --- | --- |
| C[C@H]1COc2c(N3CC4C(N)C4C3)c(F)cc3cc(C(=O)O)c(=O)n1c23 (mixture of isomers) [Example 1.38, (3S)-10-(6-amino-3-azabicyclo[3.1.0]hexan-3-yl)-9-fluoro-3-methyl-5-oxo-2,3-dihydro-5H-[1,4]oxazino[2,3,4-ij]quinoline-6-carboxylic acid] | < 1 | > 32 | 1 to 32 | 1 to 32 | < 1 | 1 to 32 | 1 to 32 |  |
| C[C@H]1COc2c(N3CCC4(CC4N)C3)c(F)c(F)c3cc(C(=O)O)c(=O)n1c23 (single isomer, unassigned) [Example 13.4] | < 1 | 1 to 32 (≈ 2.56 to 81.8 µM) | < 1 | 1 to 32 (≈ 2.56 to 81.8 µM) | < 1 | < 1 | 1 to 32 (≈ 2.56 to 81.8 µM) |  |
| C[C@H]1COc2c(N3CC(CC4(N)CC4)C3)c(F)cc3cc(C(=O)O)c(=O)n1c23 [Example 1.76, (S)-10-(3-((1-aminocyclopropyl)methyl)azetidin-1-yl)-9-fluoro-3-methyl-5-oxo-2,3-dihydro-5H-[1,4]oxazino[2,3,4-ij]quinoline-6-carboxylic acid] | > 32 | > 32 | > 32 | > 32 | > 32 | > 32 | > 32 |  |
| C[C@H]1COc2c(N3CCC(N)(CO)CC3)c(F)cc3cc(C(=O)O)c(=O)n1c23 [Example 1.67, (S)-10-(4-amino-4-(hydroxymethyl)piperidin-1-yl)-9-fluoro-3-methyl-5-oxo-2,3-dihydro-5H-[1,4]oxazino[2,3,4-ij]quinoline-6-carboxylic acid] | > 32 | > 32 | > 32 | > 32 | > 32 | > 32 | > 32 |  |
| C[C@H]1COc2c(N3CCN4C(=O)CCC4C3)c(F)cc3cc(C(=O)O)c(=O)n1c23 (stereo partly drawn) [Example 1.14, (3S)-9-fluoro-3-methyl-5-oxo-10-(6-oxohexahydropyrrolo[1,2-a]pyrazin-2(1H)-yl)-2,3-dihydro-5H-[1,4]oxazino[2,3,4-ij]quinoline-6-carboxylic acid] | > 32 | 1 to 32 (≈ 2.49 to 79.7 µM) | 1 to 32 (≈ 2.49 to 79.7 µM) | 1 to 32 (≈ 2.49 to 79.7 µM) | < 1 | 1 to 32 (≈ 2.49 to 79.7 µM) | > 32 |  |
| C[C@H]1COc2c(N3CC[C@@H](C4(N)CCCC4)C3)c(F)cc3cc(C(=O)O)c(=O)n1c23 [Example 1.75, (S)-10-((R)-3-(1-aminocyclopentyl)pyrrolidin-1-yl)-9-fluoro-3-methyl-5-oxo-2,3-dihydro-5H-[1,4]oxazino[2,3,4-ij]quinoline-6-carboxylic acid] | 1 to 32 (≈ 2.41 to 77 µM) | 1 to 32 (≈ 2.41 to 77 µM) | < 1 | 1 to 32 (≈ 2.41 to 77 µM) | < 1 | 1 to 32 (≈ 2.41 to 77 µM) | > 32 |  |
| CC(N)C1(F)CCN(c2c(F)cc3cc(C(=O)O)c(=O)n4c3c2OC[C@@H]4C)C1 (single isomer, unassigned) [Example 1.47] | 1 to 32 (≈ 2.54 to 81.3 µM) | 1 to 32 (≈ 2.54 to 81.3 µM) | < 1 | 1 to 32 (≈ 2.54 to 81.3 µM) | < 1 | 1 to 32 (≈ 2.54 to 81.3 µM) | > 32 |  |
| C[C@H]1COc2c(N3CC4CC4(N)C3)c(F)cc3c(CN)cc(=O)n1c23 (stereo partly drawn) [Example 7.10, (3S)-10-(1-amino-3-azabicyclo[3.1.0]hexan-3-yl)-7-(aminomethyl)-9-fluoro-3-methyl-2,3-dihydro-5H-[1,4]oxazino[2,3,4-ij]quinolin-5-one] | < 1 | < 1 | < 1 | 1 to 32 (≈ 2.9 to 92.9 µM) | < 1 | 1 to 32 (≈ 2.9 to 92.9 µM) | 1 to 32 (≈ 2.9 to 92.9 µM) |  |
| C[C@H]1COc2c(N3CC4CNC4C3)c(F)cc3cc(C(=O)O)c(=O)n1c23 (single isomer, unassigned) [Example 1.39] | > 32 | > 32 | > 32 | > 32 | > 32 | > 32 | > 32 |  |
| C[C@H]1COc2c(N3CC4CC4(N)C3)c(F)c(F)c3cc(C(=O)O)c(=O)n1c23 (single isomer, unassigned) [Example 13.6] | 1 to 32 (≈ 2.65 to 84.8 µM) | 1 to 32 (≈ 2.65 to 84.8 µM) | < 1 | < 1 | < 1 | < 1 | > 32 |  |
| C[C@H]1COc2c(N3C[C@H](F)[C@@H](C4(N)CC4)C3)c(F)cc3cc(C(=O)O)c(=O)n1c23 [Example 1.74, (S)-10-((3R,4R)-3-(1-aminocyclopropyl)-4-fluoropyrrolidin-1-yl)-9-fluoro-3-methyl-5-oxo-2,3-dihydro-5H-[1,4]oxazino[2,3,4-ij]quinoline-6-carboxylic acid] | 1 to 32 (≈ 2.47 to 78.9 µM) | 1 to 32 (≈ 2.47 to 78.9 µM) | < 1 | 1 to 32 (≈ 2.47 to 78.9 µM) | < 1 | 1 to 32 (≈ 2.47 to 78.9 µM) | > 32 |  |
| C[C@H]1CNc2c(N3CC[C@@H](C4(N)CC4)C3)c(F)cc3cc(C(=O)O)c(=O)n1c23.Cl [Example 10, (S)-10-((R)-3-(1-aminocyclopropyl)pyrrolidin-1-yl)-9-fluoro-3-methyl-5-oxo-2,3-dihydro-1H,5H-pyrido[1,2,3-de]quinoxaline-6-carboxylic acid hydrochloride salt] | 1 to 32 | > 32 |  | 1 to 32 | 1 to 32 | 1 to 32 | > 32 | 1 to 32 |
| C[C@H]1COc2c(N3CCN4C[C@@H](F)C[C@H]4C3)c(F)cc3cc(C(=O)O)c(=O)n1c23 [Example 1.73, (S)-9-fluoro-10-((7S,8aS)-7-fluorohexahydropyrrolo[1,2-a]pyrazin-2(1H)-yl)-3-methyl-5-oxo-2,3-dihydro-5H-[1,4]oxazino[2,3,4-ij]quinoline-6-carboxylic acid] | 1 to 32 (≈ 2.47 to 78.9 µM) | > 32 | > 32 | > 32 | 1 to 32 (≈ 2.47 to 78.9 µM) | > 32 | > 32 |  |
| C[C@H]1COc2c(N3CC4CC(N)C4C3)c(F)cc3cc(C(=O)O)c(=O)n1c23 (single isomer, unassigned) [Example 1.62] | > 32 | > 32 | > 32 | > 32 | 1 to 32 (≈ 2.68 to 85.7 µM) | > 32 | > 32 |  |
| C[C@H]1COc2c(N3CCC(C4(N)COC4)C3)c(F)cc3cc(C(=O)O)c(=O)n1c23 (stereo partly drawn) [Example 1.9, (3S)-10-(3-(3-aminooxetan-3-yl)pyrrolidin-1-yl)-9-fluoro-3-methyl-5-oxo-2,3-dihydro-5H-[1,4]oxazino[2,3,4-ij]quinoline-6-carboxylic acid] | > 32 | > 32 | 1 to 32 (≈ 2.48 to 79.3 µM) | > 32 | 1 to 32 (≈ 2.48 to 79.3 µM) | > 32 | > 32 |  |
| C[C@H]1COc2c(N3CC(CN)C4(CCC4)C3)c(F)cc3cc(C(=O)O)c(=O)n1c23 (single isomer, unassigned) [Example 1.49] | 1 to 32 (≈ 2.49 to 79.7 µM) | 1 to 32 (≈ 2.49 to 79.7 µM) | < 1 | 1 to 32 (≈ 2.49 to 79.7 µM) | < 1 | < 1 | 1 to 32 (≈ 2.49 to 79.7 µM) |  |
| CC[C@H]1COc2c(N3CC[C@@H](C4(N)CC4)C3)c(F)cc3cc(C(=O)O)c(=O)n1c23 [Example 1.19, (S)-10-((R)-3-(1-aminocyclopropyl)pyrrolidin-1-yl)-3-ethyl-9-fluoro-5-oxo-2,3-dihydro-5H-[1,4]oxazino[2,3,4-ij]quinoline-6-carboxylic acid] | > 32 | > 32 | < 1 | 1 to 32 (≈ 2.49 to 79.7 µM) | 1 to 32 (≈ 2.49 to 79.7 µM) | 1 to 32 (≈ 2.49 to 79.7 µM) | > 32 |  |

From patent US20180318311A1, “TRICYCLIC 2-QUINOLINONES AS ANTIBACTERIALS” (priority 2017, published 2018)
